# Results from the supplement of paper PMC11208160.
# Assay: recombinant UMI read abundance after kanamycin selection (control-corrected) (log10(CPM+1)); higher = more efficient recombination; extreme values may be limits of the assay; sequences stand for … in AGTGCAGAGAAAATCGGCCAGTTTTCTCTGCCTGCAGTCCGCATGCCGTGGGACCCCTTGGGTTCTAACCTGTTGCCTAGATTTATGCAGCGGACTGCCTTTCTCCCAAAGTGATAAACCGG…AGGTTGGTTTCACT; site = the 11-nt donor
# Experimental: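 Pooled E. coli donor-specificity screen for the IS621 bridge recombinase. Each library member carries a reprogrammed 11-nt donor and a full-length LE bridge RNA expressed in cis from the natural promoter, with a paired donor-binding loop (8-nt LDG + 4-nt RDG) and a target-binding loop fixed to T5. It is co-electroporated with a T5 target plasmid; recombinase is induced with 0.07 mM IPTG and recombinants are selected on kanamycin. UMIs are counted as CPM, averaged over two biological replicates and corrected by the unselected control. Molecule = full bridge RNA written as DNA, built from the T5 scaffold: LDG = donor specificity nt 1-8, RDG = reverse complement of nt 8-11.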
# 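Further: IS621 bridge recombinase in Escherichia coli cells against a fixed T5 target plasmid.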
row,Sequence,recombinant UMI read abundance (log10)
1,AGCTTTCCATGGACCGGTTTTCCCGGTAATCCGTATTTGGA (site AGCTTTCCTTC),0.00277
2,AGGAAAACATGGACCGGTTTTCCCGGTAATCCGTATTTGCA (site AGGAAAACTTG),0.959
3,AGGAAAACATGGACCGGTTTTCCCGGTAATCCGTATTTGCA (site AGGAACACTTG),0
4,AGGAAAACATGGACCGGTTTTCCCGGTAATCCGTATTTGCA (site AGGAAGACTTG),0
5,AGGAAAACATGGACCGGTTTTCCCGGTAATCCGTATTTGCA (site AGGAATACTTG),0
6,AGGAAAACATGGACCGGTTTTCCCGGTAATCCGTATTTGTA (site AGGAAAACTTA),1.92
7,AGGAAAACATGGACCGGTTTTCCCGGTAATCCGTATTTGTA (site AGGAAGACTTG),0
8,AGGAACACATGGACCGGTTTTCCCGGTAATCCGTATTTGCA (site AGGAAAACTTG),0
9,AGGAACACATGGACCGGTTTTCCCGGTAATCCGTATTTGCA (site AGGAACACTTG),2.52
10,AGGAACACATGGACCGGTTTTCCCGGTAATCCGTATTTGCA (site AGGAAGACTTG),0
11,AGGAACACATGGACCGGTTTTCCCGGTAATCCGTATTTGCA (site AGGAATACTTG),0.211
12,AGGAAGGCATGGACCGGTTTTCCCGGTAATCCGTATTTGCT (site AGAAAGGCTAG),2.69
13,AGGAAGGCATGGACCGGTTTTCCCGGTAATCCGTATTTGCT (site AGCAAGGCTAG),0.362
14,AGGAAGGCATGGACCGGTTTTCCCGGTAATCCGTATTTGCT (site AGGAAGACTTG),0.296
15,AGGAAGGCATGGACCGGTTTTCCCGGTAATCCGTATTTGCT (site AGGAAGGCTAG),2.27
16,AGGAAGGCATGGACCGGTTTTCCCGGTAATCCGTATTTGCT (site AGTAAGGCTAG),1.3
17,AGGAAGGCATGGACCGGTTTTCCCGGTAATCCGTATTTGGA (site AGGAAGACTTG),0.224
18,AGGAAGGCATGGACCGGTTTTCCCGGTAATCCGTATTTGGA (site AGGAAGGCTTC),1.73

row,Sequence,recombinant UMI read abundance (log10)
1,AGGAAGTCATGGACCGGTTTTCCCGGTAATCCGTATTTGCA (site AGGAAGACTTG),0.839
2,AGGAAGTCATGGACCGGTTTTCCCGGTAATCCGTATTTGCA (site AGGAAGCCTTG),0.641
3,AGGAAGTCATGGACCGGTTTTCCCGGTAATCCGTATTTGCA (site AGGAAGGCTTG),0
4,AGGAAGTCATGGACCGGTTTTCCCGGTAATCCGTATTTGCA (site AGGAAGTCTTG),3.29
5,AGGAAGTCATGGACCGGTTTTCCCGGTAATCCGTATTTGTC (site AGGAAGTCTGA),3.14
6,AGGAATTCATGGACCGGTTTTCCCGGTAATCCGTATTTGTT (site AGGAATTCTAA),2.16
7,AGGAATTCATGGACCGGTTTTCCCGGTAATCCGTATTTGTT (site CGGAATCCTAA),0
8,AGGACGACATGGACCGGTTTTCCCGGTAATCCGTATTTGCA (site AGGAAGACTTG),0.601
9,AGGACGACATGGACCGGTTTTCCCGGTAATCCGTATTTGCA (site AGGACGACTTG),2.51
10,AGGACGACATGGACCGGTTTTCCCGGTAATCCGTATTTGCA (site AGGAGGACTTG),1.38
11,AGGACGACATGGACCGGTTTTCCCGGTAATCCGTATTTGCA (site AGGATGACTTG),0.853
12,AGGACGACATGGACCGGTTTTCCCGGTAATCCGTATTTGGA (site AGGAAGACTTG),0
13,AGGACGACATGGACCGGTTTTCCCGGTAATCCGTATTTGGA (site AGGACGACTTC),0.813
14,AGGACTACATGGACCGGTTTTCCCGGTAATCCGTATTTGGC (site AGGACTACTGA),0
15,AGGACTACATGGACCGGTTTTCCCGGTAATCCGTATTTGGC (site AGGACTACTGC),2.95
16,AGGACTACATGGACCGGTTTTCCCGGTAATCCGTATTTGGC (site AGGACTACTGG),0
17,AGGACTACATGGACCGGTTTTCCCGGTAATCCGTATTTGGC (site AGGACTACTGT),1.61
18,AGGACTTCATGGACCGGTTTTCCCGGTAATCCGTATTTGAC (site AGGACTACTGT),0
